Key:
[1] = test system: MYC mRNA in MV4:11 (AML) cells; test: cMyc RNA quantification assay (QuantiGene) in MV4:11 cells; format: cell-based; settings: Homo sapiens, 4 h, QuantiGene 2.0
In short: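 Cells exposed to a range of compound concentrations for 4 h, then MYC mRNA quantified by QuantiGene 2.0 branched-DNA assay. Biological duplicates averaged and normalized to DMSO vehicle, expressed as percent MYC mRNA.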

[2] = test system: IL-6 secretion in THP-1 cells; test: Cell-based IL-6 quantification assay (ELISA, Mesoscale) in LPS-treated THP-1 cells; settings: Homo sapiens, LPS 4 μg/mL, 16 h, ELISA value/CellTiter-Glo ratio
In short: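 THP-1 cells (100,000/well, RPMI-10% FBS) stimulated with 4 μg/mL LPS and incubated 16 h with compound at various concentrations. Supernatant IL-6 measured by Mesoscale ELISA, normalized to CellTiter-Glo cell content; % inhibition of secretion from the ratio.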

BRD4 (BD1) = target: T1, BRD4 (BD1) (Homo sapiens, UniProt O60885); test: BRD4 AlphaLisa binding assay; settings: BRD4 (BD1) 30 nM, biotinylated H4-tetraacetyl peptide 200 nM; read-out: BRD4 AlphaLisa
T1 construct: His; made in house
In short: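 BRD4 (BD1) (30 nM final) with peptide (200 nM final) in 40 mM HEPES pH 7.0, 40 mM NaCl, 1 mM DTT, 0.01% BSA, 0.008% Brij-35, 1.2% DMSO, 20 min at RT with compound.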

IC50 [1] [nM]	IC50 [2] [nM]	IC50 (BRD4 (BD1)) [nM]	SMILES
< 100	< 100	< 100	Cc1nnc2n1-c1ccc(-c3cn[nH]c3)cc1N(c1ccc(C#N)cc1)C[C@H]2C [Compound 80, (R)-4-(1,4-dimethyl-8-(1H-pyrazol-4-yl)-4H-benzo[b][1,2,4]triazolo[4,3-d][1,4]diazepin-6(5H)-yl)benzonitrile]
1000 to 10000	> 1000	< 100	Cc1nnc2n1-c1ccc(-c3cnn(CC(N)=O)c3)cc1N(c1ccc(C#N)cc1)C[C@H]2C [Compound 81, (R)-2-(4-(6-(4-cyanophenyl)-1,4-dimethyl-5,6-dihydro-4H-benzo[b][1,2,4]triazolo[4,3-d][1,4]diazepin-8-yl)-1H-pyrazol-1-yl)acetamide]
100 to 1000	> 1000	100 to 1000	Cc1nnc2n1-c1ccc(-c3ccc(=O)[nH]c3)cc1N(c1ccc(Cl)cn1)C[C@H]2C [Compound 82, (R)-5-(6-(5-chloropyridin-2-yl)-1,4-dimethyl-5,6-dihydro-4H-benzo[b][1,2,4]triazolo[4,3-d][1,4]diazepin-8-yl)pyridin-2(1H)-one]
< 100	< 100	< 100	Cc1nnc2n1-c1ccc(-c3cnc(N)cn3)cc1N(c1ccc(Cl)cn1)C[C@H]2C [Compound 83, (R)-5-(6-(5-chloropyridin-2-yl)-1,4-dimethyl-5,6-dihydro-4H-benzo[b][1,2,4]triazolo[4,3-d][1,4]diazepin-8-yl)pyrazin-2-amine]
1000 to 10000	> 1000	> 500	COc1ccc2c(n1)N(c1ccc(C#N)cc1)CC(C)c1nnc(C)n1-2 (stereo not drawn) [Compound 84, 4-(8-methoxy-1,4-dimethyl-4H-pyrido[2,3-b][1,2,4]triazolo[4,3-d][1,4]diazepin-6(5H)-yl)benzonitrile]
100 to 1000	> 1000	100 to 1000	Cc1[nH]c(=O)ccc1-c1ccc2c(c1)N(c1ccc(Cl)cc1)C[C@@H](C)c1nnc(C)n1-2 [Compound 85, (R)-5-(6-(4-chlorophenyl)-1,4-dimethyl-5,6-dihydro-4H-benzo[b][1,2,4]triazolo[4,3-d][1,4]diazepin-8-yl)-6-methylpyridin-2(1H)-one]

— patent US9422292B2, “Bromodomain inhibitors and uses thereof” (Constellation Pharmaceuticals, Inc., priority 2011, dated 2016)
